Patent publication US10526322B2, “Inhibitors of kidney-type glutaminase, GLS-1” (CORNELL UNIVERSITY, priority 2014, dated 2020)

Biological target: T1, 488-GAC (mouse kidney-type glutaminase isoform 2, GAC) (Mus musculus, UniProt D3Z7P3)
T1 construct: (residues 72-603) was cloned into a pET23a vector; His-tag with thrombin cleavage site (N, cleaved yes); made in house
T1 sequence (D3Z7P3 72-603 isoform D3Z7P3-2): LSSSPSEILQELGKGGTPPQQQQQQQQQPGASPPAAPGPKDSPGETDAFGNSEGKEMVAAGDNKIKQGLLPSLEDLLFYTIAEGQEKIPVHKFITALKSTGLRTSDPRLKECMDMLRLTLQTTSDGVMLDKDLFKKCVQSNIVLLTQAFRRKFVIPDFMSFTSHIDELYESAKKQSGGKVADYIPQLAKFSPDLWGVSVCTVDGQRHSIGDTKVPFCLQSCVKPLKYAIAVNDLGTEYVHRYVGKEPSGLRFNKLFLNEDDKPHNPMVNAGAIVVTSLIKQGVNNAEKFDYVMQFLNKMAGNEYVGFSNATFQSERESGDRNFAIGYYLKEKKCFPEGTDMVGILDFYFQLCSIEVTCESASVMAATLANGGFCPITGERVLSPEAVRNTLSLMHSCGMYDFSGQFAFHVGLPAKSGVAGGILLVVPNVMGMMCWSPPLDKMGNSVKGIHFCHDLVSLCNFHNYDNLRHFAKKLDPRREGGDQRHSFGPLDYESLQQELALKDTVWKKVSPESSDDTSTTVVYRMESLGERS
Experiment: Real-time binding assay, quenching of 488-GAC fluorescence
Details: 10 nM 488-GAC, 96-well plate format; read-out: KD of binding isotherm (fluorescence quenching)
Experimental: A plasmid encoding the mouse kidney-type glutaminase isoform 2 (GAC, GenBank Accession No. NP_001106854.1, which is hereby incorporated by reference in its entirety) (residues 72-603) was cloned into a pET23a vector containing an N-terminal histidine (His)-tag and thrombin cleavage site. The expressed protein was purified using Co^2+ affinity beads (Clontech), followed by His-tag cleavage with human thrombin (Haemetologic Technologies) overnight at 4° C., and subsequently purified by anion exchange (GE healthcare) and gel filtration chromatography. […] The stoichiometry of labeling was determined using the probe manufacturer's reported molar absorptivity values and instructions. Briefly, the concentration of GAC was determined by first correcting absorbance at 280 nm (Abs280) for each probe, using the reported correction values (0.11 for AlexaFluor 488 and 0.23 for QSY-9) and their absorbance values at their absorbance maxima (495 nm and 562 nm, respectively). The corrected Abs280 was used along with the experimentally determined molar absorptivity of GAC (ε280=38,850 M−1 cm−1). AlexaFluor 488 and QSY-9 probes were quantified using their respective absorbance maxima and the manufacturer's reported molar absorptivity values (ε495=71,000 M−1 cm−1 and ε562=85,000 M−1 cm−1). […]

Kd: 3000 nM
Compound: CN(C)c1ccc(C2Nc3ccc4ccccc4c3C3=C2C(=O)CC(C)(C)C3)cc1Br (stereo not shown) [Compound 968]
